Source: patent EP2524918A1, “Imidazopyrazines derivates as kinase inhibitors” (Centro Nacional de Investigaciones Oncológicas (CNIO), priority 2011, dated 2012)

Experiments:
Miapaca = assay: Antiproliferation MTT assay, Miapaca; assay type: cell-based; conditions: Homo sapiens, MIA PaCa-2; Pancreas
Experimental: (§1) Cells were seeded at 10000-50000 cells/well in 96 plates for 16 h. On day two, nine serial 1:3 compound dilutions were made in DMSO in a 96 well plate. The compounds were added to duplicate wells in 96-well cell plates a using a FX BECKMAN robot (Beckman Coulter) and incubated at 37°C with CO2 atmosphere. After 3 days, relative numbers of viable cells were measured by MTT (Sigma) according to manufacturer's instruction and read on EndVision (Perkin Elmer). EC50 values were calculated using ActivityBase from IDBS. Drugs in combination assays were dosed starting at 4 x EC50 concentrations and continuing with serial dilutions 1:2. PI3K inhibitors and chemotherapeutic agents were added simultaneously.
(§2) An additional exemplary in vitro cell proliferation assay includes the following steps: • 1. An aliquot of 200 µl of cell culture containing optimal density (between 10^4 - 5x10^4 cells) (see Examples for cell lines and tumour type) in medium was deposited in each well of a 96-well flat bottom plates. • 2. Control wells were prepared containing medium without cells • 3. The compound was added to the experimental wells and incubated for 3 days. • 4. One quarter volume of MTT reagent with respect to the volume of cell culture medium present in each well was added and incubated 24h at 37°C with 5% CO2. • 5. One quarter volume of solubilisation buffer with respect to the volume of cell culture medium present in each well was added and incubated 24h at 37°C with 5% CO2. • 6. Formazan salt formed was recorded and reported in graphs as relative growth vs. cells treated only with dmso.

U2OS = assay: Antiproliferation MTT assay, U2OS; assay type: cell-based; conditions: Homo sapiens, Osteosar coma
Experimental: as §1, §2

NCI H1975 = assay: Antiproliferation MTT assay, NCI H1975; assay type: cell-based; conditions: Homo sapiens, Lung Cancer
Experimental: as §1, §2

[1] = test system: phospho-Akt1 (Ser473) protein; assay: PI3K cellular activity (Elisa assay), AKT phosphorylation in U2OS cells; assay type: cell-based; conditions: Homo sapiens, U20S cells, inhibition of phosphorylation of AKT, 3h treatment, read-out: AKT_P_U20S_ELISA_EC50
Experimental: Activity is measured as endogenous levels of phospho-Akt1 (Ser473) protein. Osteosarcoma U2OS cells are plated in 96 Poly-D-Lysine coating tissue culture plates (18.000 cells/well). After the treatment with serial dilutions of the compound during 3h, the cells are fixed directly in the wells with 4% paraformaldehyde.
After fixing, individual wells go through the same series of steps used for a conventional immunoblot: including blocking with 5% BSA, incubation with 1/1000 of primary antibody-AKT ([…]) in PBS containing 5% BSA at 4°C overnight (Cell Signalling), washing and incubation with second antibody HRP-anti-mouse IgG for 1 h at RT (Amersham). After the addition of SuperSignal ELISA Femto maximum sensitivity chemiluminescent substrate (Pierce) the results are read using a luminescence plate reader (Victor).

COLO206 = assay: Antiproliferation MTT assay, COLO206; assay type: cell-based; conditions: Colon Cancer
Experimental: as §1, §2

MCF7 = assay: Antiproliferation MTT assay, MCF7; assay type: cell-based; conditions: Homo sapiens, Breast cancer
Experimental: as §1
(§3) An additional exemplary in vitro cell proliferation assay includes the following steps: • 1. An aliquot of 200 µl of cell culture containing optimal density (between 10^4 - 5x10^4 cells) (see Examples for cell lines and tumour type) in medium was deposited in each well of a 96-well flat bottom plates. • 2. Control wells were prepared containing medium without cells • 3. The compound was added to the experimental wells and incubated for 3 days. • 4. […] Formazan salt formed was recorded and reported in graphs as relative growth vs. cells treated only with dmso.

SW620 = assay: Antiproliferation MTT assay, SW620; assay type: cell-based; conditions: Homo sapiens, SW-620; Colon Cancer
Experimental: as §1, §3

SKMEL19 = assay: Antiproliferation MTT assay, SKMEL19; assay type: cell-based; conditions: Homo sapiens, SK-MEL19, Melanoma
Experimental: as §1, §2

HCT 116p53 ++ = assay: Antiproliferation MTT assay, HCT 116; assay type: cell-based; conditions: Homo sapiens, HCT-116, Colon Cancer
Experimental: as §1, §2

NCI H460 = assay: Antiproliferation MTT assay, NCI H460; assay type: cell-based; conditions: Homo sapiens, Lung Cancer
Experimental: as §1, §3

A549 = assay: Antiproliferation MTT assay, A549; assay type: cell-based; conditions: Homo sapiens, A549, Lung Cancer
Experimental: as §1, §2

HT39 = assay: Antiproliferation MTT assay, HT39; assay type: cell-based; conditions: Colon Cancer
Experimental: as §1, §2

NCI H23 = assay: Antiproliferation MTT assay, NCI H23; assay type: cell-based; conditions: Homo sapiens, Lung Cancer
Experimental: as §1, §2

BT474 = assay: Antiproliferation MTT assay, BT474; assay type: cell-based; conditions: Homo sapiens, BT-474; Breast cancer
Experimental: as §1, §2

HDAC = HDAC enzymatic activity (HDAC-Glo I/II Screening System, HeLa cell nuclear extracts); assay type: biochemical; conditions: HeLa cell nuclear extract, 25°C for 30 minutes
Experimental: HDAC inhibitory activity was evaluated using the HDAC-Glo™ I/II Screening System from Promega (G6430) using manufacturing recommendations. The system emploies HeLa cell nuclear extracts as a source of HDAC activities. The assay uses an acetylated, live-cell-permeant, luminogenic peptide substrate that can be deacetylated by HDAC activities. Substrate deacetylation is measured by a coupled protease reaction that cleaves the peptide from aminoluciferin, which is quantified in a reaction using recombinant Ultra-Glo™ firefly luciferase. Test compounds were serially diluted in dimethylsulphoside (DMSO) and added to HeLa cell nuclear extract in the presence of the acetylated luminogenic peptide substrate and developer reagent. Reactions were incubated at 25°C for 30 minutes and luminescence was measured in the EnVision plate reader (Perkin Elmer). Data were analyzed using GraphPad Prism (v5.03) with a sigmoidal dose-response curve fitting for IC50 calculation.

Raji = assay: Antiproliferation MTT assay, Raji; assay type: cell-based; conditions: Homo sapiens, Burkitt Lymphoma
Experimental: as §1, §2

MDAMB 231 = assay: Antiproliferation MTT assay, MDAMB 231; assay type: cell-based; conditions: Homo sapiens, MDA-MB-231; Breast cancer
Experimental: as §1, §2

[2] = test system: phospho-Akt1 (Ser473) protein; assay: PI3K cellular activity (Elisa assay), AKT phosphorylation in SKMEL cells; assay type: cell-based; conditions: inhibition of phosphorylation of AKT, read-out: AKT_P_SKMEL_ELISA_EC50
MV4:11 = assay: Antiproliferation assay, MV4:11; assay type: cell-based; conditions: Homo sapiens, AML, read-out: MMP MV4:11 IC50
Experimental: as §1, §2

SKMel29 = assay: Antiproliferation MTT assay, SKMel29; assay type: cell-based; conditions: Melanoma
Experimental: as §1, §2

PI3K (p110α/p85α) = target: T1, PI3K (p110α/p85α (Homo sapiens, UniProt P42336)); assay: PI3K activity assay (ADP Hunter Plus); assay type: biochemical; conditions: 50 µM ATP, 30 µM PIP2, 1 hour at 25°C; read-out: PI3Kα IC50
T1 construct: purchased Carna Biosciences #07CBS-0402A
Experimental: The kinase activity was measured by using the commercial ADP Hunter™ Plus assay available from DiscoveRx (#33-016), which is a homogeneous assay to measure the accumulation of ADP, a universal product of kinase activity. […] Reaction was carried out for 1 hour at 25°C. Reagent A and B were sequentially added to the wells and plates were incubated for 30 min at 37 °C. Fluorescence counts were read in a Victor instrument (Perkin Elmer) with the recommended settings (544 and 580 nm as excitation and emission wavelengths, respectively). Values were normalized against the control activity included for each enzyme (i.e., 100 % PI3 kinase activity, without compound). These values were plot against the inhibitor concentration and were fit to a sigmoid dose-response curve by using the Graphad software.

PC3 = assay: Antiproliferation MTT assay, PC3; assay type: cell-based; conditions: Homo sapiens, PC-3; Prostate
Experimental: as §1, §3

[3] = first of two columns with the same head (c1)
[4] = second of two columns with the same head (c2)
[5] = first of two columns with the same head (c3)

T1 sequence (P42336 whole entry): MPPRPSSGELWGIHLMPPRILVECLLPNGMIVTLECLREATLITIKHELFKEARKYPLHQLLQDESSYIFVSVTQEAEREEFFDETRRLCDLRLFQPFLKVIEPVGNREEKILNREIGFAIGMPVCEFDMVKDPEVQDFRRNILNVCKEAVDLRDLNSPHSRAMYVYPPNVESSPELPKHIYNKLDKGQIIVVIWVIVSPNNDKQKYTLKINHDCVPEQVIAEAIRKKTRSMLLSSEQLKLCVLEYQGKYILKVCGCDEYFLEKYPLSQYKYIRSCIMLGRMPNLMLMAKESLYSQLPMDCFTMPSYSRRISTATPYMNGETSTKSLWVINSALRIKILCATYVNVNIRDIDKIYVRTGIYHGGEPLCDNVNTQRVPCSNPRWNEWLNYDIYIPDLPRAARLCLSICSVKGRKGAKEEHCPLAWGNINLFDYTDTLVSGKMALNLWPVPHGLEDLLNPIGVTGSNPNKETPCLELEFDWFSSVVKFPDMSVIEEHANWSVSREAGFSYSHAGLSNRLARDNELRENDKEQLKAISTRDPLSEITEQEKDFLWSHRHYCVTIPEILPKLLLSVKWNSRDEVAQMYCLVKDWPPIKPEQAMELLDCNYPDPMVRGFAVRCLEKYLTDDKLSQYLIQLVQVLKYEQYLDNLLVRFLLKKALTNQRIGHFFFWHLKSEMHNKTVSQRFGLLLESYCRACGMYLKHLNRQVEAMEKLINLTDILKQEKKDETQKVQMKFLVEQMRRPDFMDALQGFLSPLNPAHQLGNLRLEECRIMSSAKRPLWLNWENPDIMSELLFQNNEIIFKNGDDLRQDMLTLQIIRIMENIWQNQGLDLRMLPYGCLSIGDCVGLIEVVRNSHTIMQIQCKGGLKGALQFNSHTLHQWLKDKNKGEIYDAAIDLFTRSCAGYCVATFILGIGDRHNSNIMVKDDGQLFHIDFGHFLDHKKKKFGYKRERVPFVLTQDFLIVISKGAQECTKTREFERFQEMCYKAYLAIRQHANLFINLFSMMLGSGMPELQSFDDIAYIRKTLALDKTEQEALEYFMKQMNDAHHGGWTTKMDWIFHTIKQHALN
T1 sequence (P27986 whole entry partner): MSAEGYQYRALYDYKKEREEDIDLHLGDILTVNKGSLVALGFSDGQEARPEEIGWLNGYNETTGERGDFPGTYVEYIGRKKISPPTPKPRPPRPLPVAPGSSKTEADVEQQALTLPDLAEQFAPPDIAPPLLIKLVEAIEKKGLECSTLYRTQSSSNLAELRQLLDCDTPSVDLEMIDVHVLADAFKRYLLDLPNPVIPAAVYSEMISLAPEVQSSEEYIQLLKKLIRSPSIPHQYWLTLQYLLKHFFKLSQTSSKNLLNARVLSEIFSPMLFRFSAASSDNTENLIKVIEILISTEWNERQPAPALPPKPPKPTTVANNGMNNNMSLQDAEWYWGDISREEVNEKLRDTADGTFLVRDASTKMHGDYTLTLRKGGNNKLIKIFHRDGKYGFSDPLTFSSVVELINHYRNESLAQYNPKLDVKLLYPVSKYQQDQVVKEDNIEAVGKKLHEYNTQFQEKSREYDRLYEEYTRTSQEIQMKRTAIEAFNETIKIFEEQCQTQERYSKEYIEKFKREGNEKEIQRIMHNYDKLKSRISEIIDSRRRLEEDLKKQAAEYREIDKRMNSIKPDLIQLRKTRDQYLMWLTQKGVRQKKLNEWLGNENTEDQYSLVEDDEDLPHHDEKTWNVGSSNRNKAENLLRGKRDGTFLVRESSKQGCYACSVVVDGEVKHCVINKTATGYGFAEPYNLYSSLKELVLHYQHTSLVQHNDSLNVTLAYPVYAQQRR

Row | SMILES | IC50 (Miapaca) [nM] | IC50 (U2OS) [nM] | IC50 (NCI H1975) [nM] | EC50 [1] [nM] | IC50 (COLO206) [nM] | IC50 (SKMEL19; [3]) [nM] | IC50 (SKMEL19; [4]) [nM] | IC50 (HCT 116p53 ++) [nM] | IC50 (HCT 116p53 ++; [5]) [nM] | IC50 (A549; [3]) [nM] | IC50 (HT39) [nM] | IC50 (NCI H23) [nM] | IC50 (BT474) [nM] | IC50 (HDAC) [nM] | IC50 (Raji) [nM] | IC50 (MDAMB 231) [nM] | EC50 [2] [nM] | IC50 (MV4:11) [nM] | IC50 (SKMel29) [nM] | IC50 (PI3K (p110α/p85α)) [nM] | further results
1 | CN(Cc1cn2cc(-c3cnc(N)nc3)nc(N3CCOCC3)c2n1)c1ncc(C(=O)NO)cn1 [Final Compound 3] | 150 | 250 | 240 | 26 | 150 | 100 | 43 | 240 | 410 | 1080 | 580 | 2040 | 19 | 10.6 | 51 | 180 | 1940 | 40 | 16 | 7.5 | IC50 (MCF7): 120 nM; IC50 (SW620): 400 nM; IC50 (NCI H460): 1690 nM; IC50 (A549; [4]): 990 nM
2 | Nc1ncc(-c2cn3cc(CN4CCN(c5ncc(C(=O)NO)cn5)CC4)nc3c(N3CCOCC3)n2)cn1 [Final Compound 2] | 630 | 2110 | 1050 | 1360 | 560 | 370 | 70 | 670 | 1160 | 3530 | 1210 | 2150 | 94 | 9 | 280 | 560 | 70 | 340 | 16 | 3.2 | IC50 (MCF7): 540 nM; IC50 (SW620): 1340 nM; IC50 (NCI H460): 2390 nM; IC50 (A549; [4]): 1320 nM; IC50 (PC3): 1170 nM
3 | Nc1ncc(-c2cn3cc(CNc4ncc(C(=O)NO)cn4)nc3c(N3CCOCC3)n2)cn1 [Final Compound 1] | 4320 | 5360 | 14400 |  | 5940 | 3300 | 2300 | 7770 | 6710 | 50800 | 34600 | 77900 | 500 | 21.1 | 2750 | 5730 | 330 | 1150 | 1330 | 5.7 | IC50 (PC3): 5760 nM
